The target in series [1] is T1, recombinant human plasminogen activator inhibitor-1 (PAI-1) (Homo sapiens, UniProt P05121).
T1 construct: purchased Molecular Innovations, Royal Oak, Mich
Briefly: Primary Screen for the PAI-1 Inhibition (residual tPA activity, Spectrozyme-tPA chromogenic substrate). It counts as biochemical. Conditions: pH 6.6 buffer; for inhibition at 10 µM: 10 μM test compound; for inhibition at 25 µM: 25 μM test compound. The procedure: Test compounds are dissolved in DMSO at a final concentration of 10 mM, then diluted 100×in physiologic buffer. The inhibitory assay is initiated by the addition of the test compound (1-100 μM final concentration, maximun DMSO concentration of 0.2%) in a pH 6.6 buffer containing 140 Mn recombinant human plasminogen activator inhibitor-1 (PAI-1; Molecular Innovations, Royal Oak, Mich.). Following a 1 hour incubation at room temperature, 70 Mn of recombinant human tissue plasminogen activator (tPA) is added, and the combination of the test compound, PAI-1 and tPA is incubated for an additional 30 minutes. Following the second incubation, Spectrozyme-tPA (American Diagnostica, Greenwich, Conn.), a chromogenic substrate for tPA, is added and absorbance read at 405 nm at 0 and 60 minutes. Relative PAI-1 inhibition is equal to the residual tPA activity in the presence of the test compound and PAI-1. Control treatments include the complete inhibition of tPA by PAI-1 at the molar ratio employed (2:1), and the absence of any effect of the test compound on tPA alone.

The target in the next series is human PAI-1 (Homo sapiens, UniProt P05121). Briefly: Assay for determining IC50 of inhibition of PAI-1 (Antibody Assay, active PAI-1 bound to tPA-coated plate). In kind it is binding. Conditions: pH 7.5 buffer, human PAI-1 50 ng/ml. The protocol: This assay is based upon the non-SDS dissociable interaction between tPA and active PAI-1. Assay plates are initially coated with human tPA (10 μg/ml). Test compounds of the present invention are dissolved in DMSO at 10 mM, then diluted with physiologic buffer (pH 7.5) to a final concentration of 1-50 μM. Test compounds are incubated with human PAI-1 (50 ng/ml) for 15 minutes at room temperature. The tPA-coated plate is washed with a solution of 0.05% Tween 20 and 0.1% BSA, then the plate is blocked with a solution of 3% BSA. An aliquot of the oxazolo-naphthyl acid/PAI-1 solution is then added to the tPA-coated plate, incubated at room temperature for 1 hour, and washed. Active PAI-1 bound to the plate is assessed by adding an aliquot of a 1:1000 dilution of the 33B8 monoclonal antibody against human PAI-1, and incubating the plate at room temperature for 1 hour (Molecular Innovations, Royal Oak, Mich.). The plate is again washed, and a solution of goat anti-mouse IgG-alkaline phosphatase conjugate is added at a 1:50,000 dilution in goat serum. The plate is incubated 30 minutes at room temperature, washed, and a solution of alkaline phosphatase substrate is added. The plate is incubated 45 minutes at room temperature, and color development is determined at OD405nm. The quantitation of active PAI-1 bound to tPA at varying concentrations of the test compound is used to determine the IC50. Results are analyzed using a logarithmic best-fit equation. The assay sensitivity is 5 ng/ml of human PAI-1 as determined from a standard curve ranging from 0-100 ng/ml.

The record followed here is patent publication US7754747B2, “Oxazolo-naphthyl acids” (Wyeth LLC, priority 2004, dated 2010).

Chain of human PAI-1 (P05121 24-402): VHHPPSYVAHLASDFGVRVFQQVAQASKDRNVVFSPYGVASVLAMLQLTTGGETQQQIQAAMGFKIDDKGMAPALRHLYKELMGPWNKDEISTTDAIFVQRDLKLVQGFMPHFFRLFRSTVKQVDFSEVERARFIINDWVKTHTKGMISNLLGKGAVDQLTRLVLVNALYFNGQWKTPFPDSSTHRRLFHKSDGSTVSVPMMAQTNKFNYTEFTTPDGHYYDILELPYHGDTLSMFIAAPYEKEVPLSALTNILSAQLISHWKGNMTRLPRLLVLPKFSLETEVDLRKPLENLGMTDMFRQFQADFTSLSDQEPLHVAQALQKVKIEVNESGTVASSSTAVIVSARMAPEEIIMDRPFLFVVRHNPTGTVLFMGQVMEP
T1 sequence (P05121 24-402): as above

`Cn1cc(-c2ncc(-c3ccc4cc(OC(Cc5ccccc5)C(=O)O)ccc4c3)o2)c2ccccc21` (centres unmarked) [Example 8, 2-({6-[2-(1-methyl-1H-indol-3-yl)-1,3-oxazol-5-yl]-2-naphthyl}oxy)-3-phenylpropanoic acid]: the melting point lay in the range of 149 to 151 °C. In addition, in series [1], the inhibition at 10 µM is 2% and the inhibition at 25 µM was 75%.

As to `O=C(O)COc1ccc2cc(-c3cnc(Cc4ccccc4)o3)ccc2c1` [Example 12, {[6-(2-benzyl-1,3-oxazol-5-yl)-2-naphthyl]oxy}acetic acid], the melting point fell in the range of 236 to 238 °C. In series [1], the inhibition at 10 µM worked out at 0% and the inhibition at 25 µM stood at 26%.

As for `c1ccc(-c2ncc(-c3ccc4cc(OCc5nnn[nH]5)ccc4c3)o2)cc1` [Example 1, 5-({[6-(2-phenyl-1,3-oxazol-5-yl)-2-naphthyl]oxy}methyl)-1H-tetraazole], the melting point lay in the range of 239 to 241 °C. The same compound yielded an IC50 at human PAI-1 of 68.4 µM. Moreover, in series [1], the inhibition at 10 µM came to 17% and the inhibition at 25 µM was 65%.

For `Cn1cc(-c2ncc(-c3ccc4cc(OCc5nnn[nH]5)ccc4c3)o2)c2ccccc21` [Example 10, 1-methyl-3-{5-[6-(1H-tetrazol-5-ylmethoxy)-2-naphthyl]-1,3-oxazol-2-yl}-1H-indole], the melting point is 254 to 256 °C. Also, in series [1], the inhibition at 10 µM was found to be 16% and the inhibition at 25 µM amounted to 35%.

In the case of `CCCCc1oc2ccccc2c1-c1ncc(-c2ccc3cc(OCC(=O)O)ccc3c2)o1` [Example 4, ({6-[2-(2-butyl-1-benzofuran-3-yl)-1,3-oxazol-5-yl]-2-naphthyl}oxy)acetic acid], the melting point was 214 to 216 °C. The IC50 against human PAI-1 worked out at 22.7 µM. In addition, in series [1], the inhibition at 10 µM was 23% and the inhibition at 25 µM came out at 46%.

In the case of `CCCCc1oc2ccccc2c1-c1ncc(-c2ccc3cc(OC(Cc4ccccc4)C(=O)O)ccc3c2)o1` (centres unmarked) [Example 3, 2-({6-[2-(2-butyl-1-benzofuran-3-yl)-1,3-oxazol-5-yl]-2-naphthyl}oxy)-3-phenylpropanoic acid], the melting point fell in the range of 174 to 177 °C. Moreover, at human PAI-1, the IC50 turned out to be 26.6 µM. In series [1], the inhibition at 10 µM was determined as 32% and the inhibition at 25 µM was determined as 66%.

Compound `CCCCc1oc2ccccc2c1-c1ncc(-c2ccc3cc(OCc4ccc(C(=O)O)cc4C(=O)O)ccc3c2)o1` [Example 18, 4-[({6-[2-(2-butyl-1-benzofuran-3-yl)-1,3-oxazol-5-yl]-2-naphthyl}oxy)methyl]isophthalic acid] had a melting point of 285 to 287 °C. In addition, in series [1], the inhibition at 10 µM amounted to 33% and the inhibition at 25 µM is 62%.

Turning to `CCCCc1oc2ccccc2c1-c1ncc(-c2ccc3cc(OCc4nnn[nH]4)ccc3c2)o1` [Example 2, 5-[({6-[2-(2-butyl-1-benzofuran-3-yl)-1,3-oxazol-5-yl]-2-naphthyl}oxy)methyl]-1H-tetraazole], the melting point was in the range of 238 to 240 °C. Further, at human PAI-1, half-maximal inhibition (IC50) required 19.4 µM. In series [1], the inhibition at 10 µM was determined as 12% and the inhibition at 25 µM was 52%.

`O=C(O)C(Cc1ccccc1)Oc1ccc2cc(-c3cnc(Cc4ccccc4)o3)ccc2c1` (centres unmarked) [Example 11, 2-{[6-(2-benzyl-1,3-oxazol-5-yl)-2-naphthyl]oxy}-3-phenylpropanoic acid] showed a melting point of 78 to 82 °C. Besides, in series [1], the inhibition at 10 µM is 18% and the inhibition at 25 µM was 31%.

For the compound `O=C(O)C(Cc1ccccc1)Oc1ccc2cc(-c3cnc(-c4cn(Cc5ccccc5)c5ccccc45)o3)ccc2c1` (centres unmarked) [Example 5, 2-({6-[2-(1-benzyl-1H-indol-3-yl)-1,3-oxazol-5-yl]-2-naphthyl}oxy)-3-phenylpropanoic acid], the melting point lay in the range of 125 to 127 °C. In addition, the IC50 against human PAI-1 was 47.4 µM. In series [1], the inhibition at 10 µM turned out to be 1% and the inhibition at 25 µM was found to be 34%.

In turn, `c1ccc(Cn2cc(-c3ncc(-c4ccc5cc(OCc6nnn[nH]6)ccc5c4)o3)c3ccccc32)cc1` [Example 7, 1-benzyl-3-{5-[6-(1H-tetrazol-5-ylmethoxy)-2-naphthyl]-1,3-oxazol-2-yl}-1H-indole] showed a melting point of 244 to 246 °C. Also, in series [1], the inhibition at 10 µM was determined as 19% and the inhibition at 25 µM stood at 61%.

For the compound `c1ccc2cc(Cc3ncc(-c4ccc5cc(OCc6nnn[nH]6)ccc5c4)o3)ccc2c1` [Example 15, 5-[({6-[2-(2-naphthylmethyl)-1,3-oxazol-5-yl]-2-naphthyl}oxy)methyl]-1H-tetrazole], the melting point was 179 to 182 °C. Further, in series [1], the inhibition at 10 µM turned out to be 22% and the inhibition at 25 µM stood at 48%.

`CCCCc1oc2ccccc2c1-c1ncc(-c2ccc3cc(OCc4ccc(C(=O)O)cc4)ccc3c2)o1` [Example 17, 4-[({6-[2-(2-butyl-1-benzofuran-3-yl)-1,3-oxazol-5-yl]-2-naphthyl}oxy)methyl]benzoic acid] gave a melting point of 251 to 254 °C. Also, in series [1], the inhibition at 10 µM was 14% and the inhibition at 25 µM is 20%.

With `Cn1cc(-c2ncc(-c3ccc4cc(OCC(=O)O)ccc4c3)o2)c2ccccc21` [Example 9, ({6-[2-(1-Methyl-1H-indol-3-yl)-1,3-oxazol-5-yl]-2-naphthyl}oxy)acetic acid], the melting point fell in the range of 269 to 272 °C. In series [1], the inhibition at 10 µM was 3% and the inhibition at 25 µM worked out at 24%.

The compound `O=C(O)COc1ccc2cc(-c3cnc(-c4cn(Cc5ccccc5)c5ccccc45)o3)ccc2c1` [Example 6, ({6-[2-(1-benzyl-1H-indol-3-yl)-1,3-oxazol-5-yl]-2-naphthyl}oxy)acetic acid] registered a melting point of 238 to 242 °C. For the same compound, in series [1], the inhibition at 10 µM is 4% and the inhibition at 25 µM worked out at 28%.

In the case of `c1ccc(Cc2ncc(-c3ccc4cc(OCc5nnn[nH]5)ccc4c3)o2)cc1` [Example 13, 5-({[6-(2-benzyl-1,3-oxazol-5-yl)-2-naphthyl]oxy}methyl)-1H-tetraazole], the melting point lay in the range of 227 to 228 °C. For the same compound, in series [1], the inhibition at 10 µM worked out at 11% and the inhibition at 25 µM is 23%.

In the case of `O=C(O)COc1ccc2cc(-c3cnc(Cc4ccc5ccccc5c4)o3)ccc2c1` [Example 14, ({6-[2-(2-naphthylmethyl)-1,3-oxazol-5-yl]-2-naphthyl}oxy)acetic acid], the melting point was 258 to 260 °C. Besides, in series [1], the inhibition at 10 µM was 12% and the inhibition at 25 µM is 17%.

On to `CCCCc1oc2ccccc2c1-c1ncc(-c2ccc3c(Br)c(OCc4ccc(C(=O)O)cc4)ccc3c2)o1` [Example 19, 4-[({1-bromo-6-[2-(2-butyl-1-benzofuran-3-yl)-1,3-oxazol-5-yl]-2-naphthyl}oxy)methyl]benzoic acid], for which the melting point lay within 281 to 283 °C. Also, in series [1], the inhibition at 10 µM came out at 12% and the inhibition at 25 µM was found to be 23%.

Turning to `CCCCc1oc2ccccc2c1-c1ncc(-c2ccc3c(Br)c(OCc4nnn[nH]4)ccc3c2)o1` [Example 16, 5-[({1-bromo-6-[2-(2-butyl-1-benzofuran-3-yl)-1,3-oxazol-5-yl]-2-naphthyl}oxy)methyl]-1H-tetrazole], the melting point lay in the range of 235 to 237 °C. Also, in series [1], the inhibition at 10 µM was found to be 11% and the inhibition at 25 µM came to 16%.
